Results from paper PMC10743905, “Design, Synthesis, and In Vitro and In Vivo Bioactivity Studies of Hydrazide–Hydrazones of 2,4-Dihydroxybenzoic Acid” (International Journal of Molecular Sciences, 2023).
Values after ≈ are worked out from the molar mass of the structure shown.

Tested on: Bordetella bronchiseptica ATCC 4617
Assay: Broth microdilution MIC/MBC
Format: cell-based
Conditions: ATCC4617
Procedure, shortened: (§1)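 MICs were determined by broth microdilution using two-fold compound dilutions (final 1000-0.488 µg/ml) in Mueller-Hinton broth for bacteria or RPMI 1640 with MOPS for yeasts. Inocula were 0.5 McFarland suspensions in 0.85% NaCl, following EUCAST/CLSI guidelines; compounds were dissolved in DMSO.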

Compound	MIC
O=C(N/N=C/c1ccc([N+](=O)[O-])cc1)c1ccc(O)cc1O [Compound 21, 2,4-dihydroxy-N-[(4-nitrophenyl)methylidene]benzohydrazide]	> 1000 µg/mL
O=C(N/N=C/c1ccccc1Cl)c1ccc(O)cc1O [Compound 22, N-[(2-chlorophenyl)methylidene]-2,4-dihydroxybenzohydrazide]	> 1000 µg/mL

Tested on: Escherichia coli ATCC 25922
Assay: Broth microdilution MIC/MBC
Format: cell-based
Conditions: ATCC25922
Procedure, shortened: as §1

Compound	MIC
O=C(N/N=C/c1ccc([N+](=O)[O-])cc1)c1ccc(O)cc1O [Compound 21, 2,4-dihydroxy-N-[(4-nitrophenyl)methylidene]benzohydrazide]	> 1000 µg/mL
O=C(N/N=C/c1ccccc1Cl)c1ccc(O)cc1O [Compound 22, N-[(2-chlorophenyl)methylidene]-2,4-dihydroxybenzohydrazide]	> 1000 µg/mL

Tested on: Enterococcus faecalis ATCC 29212
Assay: Broth microdilution MIC/MBC
Format: cell-based
Conditions: not given
Procedure, shortened: as §1

Compound	MBC/MIC
O=C(N/N=C/c1ccc([N+](=O)[O-])cc1)c1ccc(O)cc1O [Compound 21, 2,4-dihydroxy-N-[(4-nitrophenyl)methylidene]benzohydrazide]	> 4

Same assay, conditions: ATCC29212, read-out: MBC

Compound	MBC
O=C(N/N=C/c1ccc([N+](=O)[O-])cc1)c1ccc(O)cc1O [Compound 21, 2,4-dihydroxy-N-[(4-nitrophenyl)methylidene]benzohydrazide]	> 1000 µg/mL

Same assay, conditions: ATCC29212, read-out: MIC

Compound	MIC
O=C(N/N=C/c1ccc([N+](=O)[O-])cc1)c1ccc(O)cc1O [Compound 21, 2,4-dihydroxy-N-[(4-nitrophenyl)methylidene]benzohydrazide]	500 µg/mL (≈ 1.66 mM)
O=C(N/N=C/c1ccccc1Cl)c1ccc(O)cc1O [Compound 22, N-[(2-chlorophenyl)methylidene]-2,4-dihydroxybenzohydrazide]	> 1000 µg/mL

Tested on: Bacillus cereus ATCC 10876
Assay: Broth microdilution MIC/MBC
Format: cell-based
Conditions: not given
Procedure, shortened: as §1

Compound	MBC/MIC
O=C(N/N=C/c1ccc([N+](=O)[O-])cc1)c1ccc(O)cc1O [Compound 21, 2,4-dihydroxy-N-[(4-nitrophenyl)methylidene]benzohydrazide]	> 2

Same assay, conditions: ATCC10876

Compound	MBC
O=C(N/N=C/c1ccc([N+](=O)[O-])cc1)c1ccc(O)cc1O [Compound 21, 2,4-dihydroxy-N-[(4-nitrophenyl)methylidene]benzohydrazide]	> 1000 µg/mL

Same assay, conditions: ATCC10876, read-out: MIC

Compound	MIC
O=C(N/N=C/c1ccc([N+](=O)[O-])cc1)c1ccc(O)cc1O [Compound 21, 2,4-dihydroxy-N-[(4-nitrophenyl)methylidene]benzohydrazide]	500 µg/mL (≈ 1.66 mM)
O=C(N/N=C/c1ccccc1Cl)c1ccc(O)cc1O [Compound 22, N-[(2-chlorophenyl)methylidene]-2,4-dihydroxybenzohydrazide]	> 1000 µg/mL

Tested on: Klebsiella pneumoniae ATCC 13883
Assay: Broth microdilution MIC/MBC
Format: cell-based
Conditions: ATCC13883
Procedure, shortened: as §1

Compound	MIC
O=C(N/N=C/c1ccc([N+](=O)[O-])cc1)c1ccc(O)cc1O [Compound 21, 2,4-dihydroxy-N-[(4-nitrophenyl)methylidene]benzohydrazide]	> 1000 µg/mL
O=C(N/N=C/c1ccccc1Cl)c1ccc(O)cc1O [Compound 22, N-[(2-chlorophenyl)methylidene]-2,4-dihydroxybenzohydrazide]	> 1000 µg/mL

Tested on: Candida krusei ATCC 14243
Assay: Broth microdilution MIC/MFC
Format: cell-based
Conditions: not given
Procedure, shortened: as §1

Compound	MFC/MIC
O=C(N/N=C/c1ccc([N+](=O)[O-])cc1)c1ccc(O)cc1O [Compound 21, 2,4-dihydroxy-N-[(4-nitrophenyl)methylidene]benzohydrazide]	> 2
O=C(N/N=C/c1ccccc1Cl)c1ccc(O)cc1O [Compound 22, N-[(2-chlorophenyl)methylidene]-2,4-dihydroxybenzohydrazide]	> 1

Same assay, conditions: Pichia kudriavzevii, ATCC14243, read-out: MFC

Compound	MFC
O=C(N/N=C/c1ccc([N+](=O)[O-])cc1)c1ccc(O)cc1O [Compound 21, 2,4-dihydroxy-N-[(4-nitrophenyl)methylidene]benzohydrazide]	> 1000 µg/mL
O=C(N/N=C/c1ccccc1Cl)c1ccc(O)cc1O [Compound 22, N-[(2-chlorophenyl)methylidene]-2,4-dihydroxybenzohydrazide]	> 1000 µg/mL

Same assay, conditions: Pichia kudriavzevii, ATCC14243, read-out: MIC

Compound	MIC
O=C(N/N=C/c1ccc([N+](=O)[O-])cc1)c1ccc(O)cc1O [Compound 21, 2,4-dihydroxy-N-[(4-nitrophenyl)methylidene]benzohydrazide]	500 µg/mL (≈ 1.66 mM)
O=C(N/N=C/c1ccccc1Cl)c1ccc(O)cc1O [Compound 22, N-[(2-chlorophenyl)methylidene]-2,4-dihydroxybenzohydrazide]	1000 µg/mL (≈ 3.44 mM)

Tested on: Candida parapsilosis ATCC 22019
Assay: Broth microdilution MIC/MFC
Format: cell-based
Conditions: not given
Procedure, shortened: as §1

Compound	MFC/MIC
O=C(N/N=C/c1ccc([N+](=O)[O-])cc1)c1ccc(O)cc1O [Compound 21, 2,4-dihydroxy-N-[(4-nitrophenyl)methylidene]benzohydrazide]	> 2
O=C(N/N=C/c1ccccc1Cl)c1ccc(O)cc1O [Compound 22, N-[(2-chlorophenyl)methylidene]-2,4-dihydroxybenzohydrazide]	> 1

Same assay, conditions: Lodderomyces parapsilosis, ATCC22019, read-out: MFC

Compound	MFC
O=C(N/N=C/c1ccc([N+](=O)[O-])cc1)c1ccc(O)cc1O [Compound 21, 2,4-dihydroxy-N-[(4-nitrophenyl)methylidene]benzohydrazide]	> 1000 µg/mL
O=C(N/N=C/c1ccccc1Cl)c1ccc(O)cc1O [Compound 22, N-[(2-chlorophenyl)methylidene]-2,4-dihydroxybenzohydrazide]	> 1000 µg/mL

Same assay, conditions: Lodderomyces parapsilosis, ATCC22019, read-out: MIC

Compound	MIC
O=C(N/N=C/c1ccc([N+](=O)[O-])cc1)c1ccc(O)cc1O [Compound 21, 2,4-dihydroxy-N-[(4-nitrophenyl)methylidene]benzohydrazide]	500 µg/mL (≈ 1.66 mM)
O=C(N/N=C/c1ccccc1Cl)c1ccc(O)cc1O [Compound 22, N-[(2-chlorophenyl)methylidene]-2,4-dihydroxybenzohydrazide]	1000 µg/mL (≈ 3.44 mM)

Tested on: Bacillus subtilis ATCC 6633
Assay: Broth microdilution MIC/MBC
Format: cell-based
Conditions: not given
Procedure, shortened: as §1

Compound	MBC/MIC
O=C(N/N=C/c1ccc([N+](=O)[O-])cc1)c1ccc(O)cc1O [Compound 21, 2,4-dihydroxy-N-[(4-nitrophenyl)methylidene]benzohydrazide]	> 2

Same assay, conditions: ATCC6633

Compound	MBC
O=C(N/N=C/c1ccc([N+](=O)[O-])cc1)c1ccc(O)cc1O [Compound 21, 2,4-dihydroxy-N-[(4-nitrophenyl)methylidene]benzohydrazide]	> 1000 µg/mL

Same assay, conditions: ATCC6633, read-out: MIC

Compound	MIC
O=C(N/N=C/c1ccc([N+](=O)[O-])cc1)c1ccc(O)cc1O [Compound 21, 2,4-dihydroxy-N-[(4-nitrophenyl)methylidene]benzohydrazide]	500 µg/mL (≈ 1.66 mM)
O=C(N/N=C/c1ccccc1Cl)c1ccc(O)cc1O [Compound 22, N-[(2-chlorophenyl)methylidene]-2,4-dihydroxybenzohydrazide]	> 1000 µg/mL

Tested on: Danio rerio embryos
Assay: Fish Embryo Acute Toxicity (FET) test, OECD No. 236
Conditions: FET test, based on LC50
Method: Wild-type AB strain zebrafish (Danio rerio) were housed in the Experimental Medicine Centre of Medical University of Lublin (Lublin, Poland), where all the experimental procedures on embryos and larvae were carried out. The animals were kept on a recirculating water supply at 26 ± 1 °C and a 10/14 dark–light cycle, and they were fed with artemia and commercial feed. Danio rerio embryos were obtained from females between 4 and 15 months of age. […] In order to avoid genetic bias in the study, eggs were randomly collected from at least three breeding groups, rinsed, and placed in Petri dishes in the cultured medium, which for Danio rerio is E3 solution. […] In accordance with the legislation of the European Union and Poland, the experiments performed on the earliest life-stages of Danio rerio until 120 h post-fertilization (120 hpf), not defined as protected, are not subject to regulations for animal experimentation.
They address the testing of chemicals using the Fish Embryo Acute Toxicity (FET) test with the species Danio rerio.
Immediately after fertilization, eggs were placed in sterile 24-well plates and exposed for 96 h to at least five concentrations of the test chemical, ranging from 1 to 500 µM and prepared ex tempore on each day of exposure, according to the principle of one egg per well and one concentration per plate. In each plate, 20 wells were filled with the solutions of the tested substance, and 4 wells of the last column were a negative internal control with E3 medium. Each well was filled with 2 mL of solution. Positive control plates were also prepared according to this scheme with 4 mg/L of 3,4-dichloroaniline (Sigma-Aldrich, Poznań, Poland) and a negative control with E3, and a negative solvent control with 1% DMSO, which was used as a solvent for the tested substances. At four time points, microscopic observations were made every 24 h. As indicators of mortality (so-called terminal observations; when at least one of these occurs, embryonic death is declared), the following were recorded: the coagulation of embryos, a lack of somite formation, a lack of detachment of the tail from the yolk sac and a lack of a heartbeat, which was observed from the 48th hour of the study. To confirm the absence of a heartbeat, a microscopic observation was conducted at 80× magnification for one minute. Then, the solutions of the tested chemicals, to maintain their constant composition throughout the test, were replaced with fresh ones, and the plates were incubated for another 24 h in an incubator at 26 ± 1 °C. […] In addition, a quantitative and qualitative summary of the morphological and physiological abnormalities that occurred in the tested Danio rerio embryos and larvae was also made. These included yolk sac edema, pericardial edema, spinal flexure, head deformities, tail deformities, developmental delay defined as a lack of hatching success for 96 hpf larvae, and also bradycardia.
Regression analysis was performed with Excel, and the above-mentioned values were obtained from the linear type of regression analysis. […] The results obtained from the heart rate study of 96 hpf zebrafish larvae were subjected to statistical analysis using one-way analysis of variance (ANOVA) and a post hoc Bonferroni test. The significance level was taken as p < 0.05.

Compound	toxicity for zebrafish embryos and larvae (in words)
O=C(N/N=C/c1ccc([N+](=O)[O-])cc1)c1ccc(O)cc1O [Compound 21, 2,4-dihydroxy-N-[(4-nitrophenyl)methylidene]benzohydrazide]	moderate toxicity
O=C(N/N=C/c1ccccc1Cl)c1ccc(O)cc1O [Compound 22, N-[(2-chlorophenyl)methylidene]-2,4-dihydroxybenzohydrazide]	quite toxic

Same assay, conditions: zebrafish, 500 µM (150.62 mg/L)

Compound	percentage of development delay	percentage of tail malformation
O=C(N/N=C/c1ccc([N+](=O)[O-])cc1)c1ccc(O)cc1O [Compound 21, 2,4-dihydroxy-N-[(4-nitrophenyl)methylidene]benzohydrazide]	10%	55%
